From patent publication US12528790B2, “Amide derivative having antiviral activity” (Shionogi & Co., Ltd., priority 2020, dated 2026)
Where two headings read alike, the source gives them in different places.

Key:
RSV A2 strain = assay: In vitro CPE (CytoPathic Effect) inhibition effect evaluation test, RSV type A; format: cell-based
Outline: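 HEp-2 cells (2.4×10^5 cells/mL, 2% FBS E-MEM) were infected with RSV alongside 3-fold compound dilutions and incubated at 37 °C, 4 days for A2 and 5 days for B Wash/18537. Viable cells quantified by CellTiter-Glo 2.0 luminescence; EC50 by nonlinear regression as 50% CPE inhibition.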

[1] = system: RSV B (Wash/18537 strain); assay: In vitro CPE (CytoPathic Effect) inhibition effect evaluation test, RSV type B; format: cell-based
Experimental: The test sample is diluted in advance to an appropriate concentration with DMSO, and 3-fold series of serial dilutions were prepared on a 384-well plate (0.32 μL/well). HEp-2 cells (CCL-23; ATCC) adjusted at appropriate number (2.4×10^5 cells/mL) in 2% FBS E-MEM (prepared by adding kanamycin and FBS to Eagle's Minimum Essential Medium; Invitrogen) were added at 12.5 μL/well to the 384-well plate previously aliquoted with the test samples. The RSV A2 strain was diluted to an appropriate concentration in a culture medium and added to the 384-well plate containing the test sample at 12.5 μL/well. The culture medium was added additionally to the 384-well plate, and the test was started with 50 μL/well. Control wells were prepared with only virus-free culture medium. The plate was incubated in a 5% CO2 incubator at 37° C. for 4 days, and the plate was then placed at room temperature for 30 minutes. CellTiter-Glo (registered trademark) 2.0 assay (Promega) was added at 15 μL/well, mixed for 30 seconds, and the plate was placed for approximately 1 hour. The luminescent signal was then measured by EnVision (PerkinElmer). The inhibitory effect of the test agents on RSV-induced CPE was calculated as 0% and 100% inhibition rate for each sample concentration based on the level of remaining viable cells by CellTiter-Glo (registered trademark) 2.0, with the EC50 value for each compound calculated by nonlinear regression as the concentration that inhibits RSV-induced CPE by 50%. In the case of evaluation against RSV type B, RSV B (Wash/18537 strain) was infected in the same manner as the type A, cultured for 5 days, and quantitated in the same manner as for the A2 strain.

[2] = human respiratory syncytial virus, HEp-2, 96 h, read-out: EC50, inhibitory effect against RSV type A (CPE inhibition)
[3] = human respiratory syncytial virus, HEp-2, 120 h, HEp-2 cells, RSV B (Wash/18537 strain), 5 days, CellTiter-Glo, read-out: EC50, inhibitory effect against RSV type B (CPE inhibition)
[4] = human respiratory syncytial virus, inhibitory effect against RSV type A (RSV A2 strain), HEp-2 cells, CPE inhibition, read-out: EC50
[5] = human respiratory syncytial virus, inhibitory effect against RSV type B, CPE inhibition, read-out: EC50
[6] = inhibitory effect against RSV type A (RSV A2 strain), HEp-2 cells, CPE inhibition, read-out: EC50
[7] = inhibitory effect against RSV type B, CPE inhibition, read-out: EC50

Row | Compound | EC50 (RSV A2 strain; [4]) | EC50 [1, 5] | also measured
1 | CC(F)(F)c1nc(N2CC3(CCOCC3)c3cc(O[C@H]4CC[C@H](N5CC(F)(F)C5)CC4)ncc32)ncc1C(=O)NC1(C(=O)O)C2CC3CC(C2)CC1C3 (some centres unmarked) [Compound I-594] |  |  | EC50 (RSV A2 strain; [2]): 0.38 nM; EC50 [1, 3]: 4.2 nM
2 | CC(F)(F)c1nc(N2CC3(CCOCC3)c3cc(OC4CCC5(CC4)COC5)ccc32)ncc1C(=O)NC1(C(=O)O)C2CC3CC(C2)CC1C3 (centres unmarked) [Compound I-527] | < 10 nM | < 10 nM | 
3 | CN(C)CCCc1nc(N2CCc3cc(OCCC4CCOCC4)ccc32)nc(C(F)(F)F)c1C(=O)NC1(C(=O)O)C2CC3CC(C2)CC1C3 (centres unmarked) [Compound I-160] | 10 to 100 nM | 100 to 5000 nM | 
4 | O=C(NC1(C(=O)O)C2CC3CC(C2)CC1C3)c1ccc(-c2cn(-c3ccncc3)c3cc(OC4CCN(c5ncccn5)CC4)ccc23)nc1C(F)(F)F (centres unmarked) [Compound I-176] | < 10 nM | < 10 nM | 
5 | COC1CCC(n2cc(-c3ncc(C(=O)NC4(C(=O)O)C5CC6CC(C5)CC4C6)c(C(F)(F)F)n3)c3ccc(OC4CCN(c5ncc(F)cn5)CC4)cc32)CC1 (single isomer, unassigned) [Compound I-423] | < 10 nM | < 10 nM | 
6 | CC(F)(F)c1nc(N2CC3(CCCCC3)c3cc(O[C@H]4CC[C@H](N5CC(F)(F)C5)CC4)ccc32)ncc1C(=O)NC1(C(=O)O)C2CC3CC(C2)CC1C3 (some centres unmarked) [Compound I-443] | < 10 nM | < 10 nM | 
7 | O=C(NC1(C(=O)O)C2CC3CC(C2)CC1C3)c1cnc(-c2nn(C3CCOCC3)c3cc(OC4CCN(c5ncccn5)CC4)ccc23)nc1C(F)(F)F (centres unmarked) [Compound I-159] |  |  | EC50 (RSV A2 strain; [2]): 0.88 nM; EC50 [1, 3]: 3 nM
8 | O=C(NC1(C(=O)O)C2CC3CC(C2)CC1C3)c1ccc(-c2cn(C3COC3)c3cc(OC4CCN(c5ncccn5)CC4)ccc23)nc1C(F)(F)F (centres unmarked) [Compound I-151] | < 10 nM | < 10 nM | 
9 | COc1nc(N2CCc3cc(OCCC4CCOCC4)ccc32)nc(C(F)(F)F)c1C(=O)NC1(C(=O)O)C2CC3CC(C2)CC1C3 (centres unmarked) [Compound I-88] |  |  | EC50 (RSV A2 strain; [6]): < 10 nM; EC50 [1, 7]: 10 to 100 nM
10 | CC(F)(F)c1nc(N2CC3(CCCCC3)c3cc(OC4CCN(c5ncc(F)cn5)CC4)ccc32)ncc1C(=O)NC1(C(=O)O)C2CC3CC(C2)CC1C3 (centres unmarked) [Compound I-396] | < 10 nM | < 10 nM | 
11 | O=C(NC1(C(=O)O)C2CC3CC(C2)CC1C3)c1cnc(N2CC3(CCOCC3)c3cc(C(=O)N4CCN(c5ncccn5)CC4)ccc32)nc1C(F)(F)F (centres unmarked) [Compound I-353] |  |  | EC50 (RSV A2 strain; [6]): < 10 nM; EC50 [1, 7]: < 10 nM
12 | CC(F)(F)c1nc(N2CC3(CCCCC3)c3cc(CN4CCN(c5ncccn5)CC4)ccc32)ncc1C(=O)NC1(C(=O)O)C2CC3CC(C2)CC1C3 (centres unmarked) [Compound I-464] | < 10 nM | 100 to 5000 nM | 
13 | COCC(C)n1cc(-c2ncc(C(=O)NC3(C(=O)O)C4CC5CC(C4)CC3C5)c(C(C)(F)F)n2)c2ccc(OC3CCN(CC(C)(F)F)CC3)cc21 (centres unmarked) [Compound I-615] | < 10 nM | < 10 nM | 
14 | NC(=O)C1(NC(=O)c2cnc(N3CC4(CCOCC4)c4cc(OC5CCN(c6ncccn6)CC5)ccc43)nc2C(F)(F)F)C2CC3CC(C2)CC1C3 (centres unmarked) [Compound I-135] | < 10 nM | 10 to 100 nM | 
15 | O=C(NC1(C(=O)O)C2CC3CC(C2)CC1C3)c1cnc(N2CC3(CCCCC3)c3cc(O[C@@H]4CCN(CC(F)(F)F)C4)ccc32)nc1C(F)(F)F (some centres unmarked) [Compound I-518] | < 10 nM | < 10 nM | 
16 | N#CCN1CCC(Oc2ccc3c(c2)C2(CCCCC2)CN3c2ncc(C(=O)NC3(C(=O)O)C4CC5CC(C4)CC3C5)c(C(F)(F)F)n2)CC1 (centres unmarked) [Compound I-521] | < 10 nM | 10 to 100 nM | 
17 | O=C(NC1(C(=O)O)C2CC3CC(C2)CC1C3)c1cnc(-c2cn(C3CCOCC3)c3cc(OC4CCN(c5ncccn5)CC4)ccc23)nc1C(F)(F)F (centres unmarked) [Compound I-146] | < 10 nM | < 10 nM | 
18 | CN1CCN(CCOc2ccc3c(c2)C2(CCOCC2)CN3c2ncc(C(=O)NC3(C(=O)O)C4CC5CC(C4)CC3C5)c(C(F)(F)F)n2)CC1 (centres unmarked) [Compound I-204] | < 10 nM | 10 to 100 nM | 
19 | CCC(CC)n1cc(-c2ccc(C(=O)NC3(C(=O)O)C4CC5CC(C4)CC3C5)c(C(F)(F)F)n2)c2ccc(O[C@H]3CC[C@H](N4CC(F)(F)C4)CC3)cc21 (some centres unmarked) [Compound I-575] | < 10 nM | < 10 nM | 

Row | Compound | EC50 (RSV A2 strain; [4]) | EC50 [1, 5] | also measured
20 | COCC(C)n1cc(-c2ncc(C(=O)NC3(C(=O)O)C4CC5CC(C4)CC3C5)c(C(F)(F)F)n2)c2ccc(OC3CCN(c4ncc(F)cn4)CC3)cc21 (racemic) [Compound I-430] | < 10 nM | < 10 nM | 
21 | CC(F)(F)c1nc(N2CC3(CCCCC3)c3cc(OC4CCN(CC(F)(F)F)CC4)ccc32)ncc1C(=O)NC1(C(=O)O)C2CC3CC(C2)CC1C3 (centres unmarked) [Compound I-440] | < 10 nM | 10 to 100 nM | 
22 | COc1cccc(COc2ccc3c(c2)CCN3c2ncc(C(=O)NC3(C(=O)O)C4CC5CC(C4)CC3C5)c(C(F)(F)F)n2)c1 (centres unmarked) [Compound I-21] | < 10 nM | 10 to 100 nM | 
23 | O=C(NC1(C(=O)O)C2CC3CC(C2)CC1C3)c1ccc(-c2cn(C3CCC(F)(F)CC3)c3cc(O[C@H]4CC[C@H](N5CC(F)(F)C5)CC4)ccc23)nc1C(F)(F)F (some centres unmarked) [Compound I-452] | < 10 nM | < 10 nM | 
24 | CC[C@@H](C)n1cc(-c2ncc(C(=O)NC3(C(=O)O)C4CC5CC(C4)CC3C5)c(C(F)(F)F)n2)c2ccc(O[C@H]3CC[C@H](N4CC(F)(F)C4)CC3)cc21 (some centres unmarked) [Compound I-613] | < 10 nM | < 10 nM | 
25 | CC(F)(F)c1nc(-c2cn(C3CCOCC3)c3cc(O[C@H]4CC[C@@H](N5CC(F)(F)C5)CC4)ccc23)ncc1C(=O)NC1(C(=O)O)C2CC3CC(C2)CC1C3 (some centres unmarked) [Compound I-547] | < 10 nM | < 10 nM | 
26 | COc1cccc(COc2ccc3c(c2)CCN3c2ncc(C(=O)NC3(C(=O)O)CC4CCC3C4)c(C(F)(F)F)n2)c1 (single isomer, unassigned) [Compound I-16] | < 10 nM | 10 to 100 nM | 
27 | O=C(N[C@]1(C(=O)O)[C@@H]2CC3C[C@H]1C[C@@](F)(C3)C2)c1cnc(-c2cn(C3CCC(F)(F)CC3)c3cc(O[C@H]4CC[C@H](N5CC(F)(F)C5)CC4)ccc23)nc1C(F)(F)F [Compound I-479] | < 10 nM | < 10 nM | 
28 | CCC1(CC)CN(c2ncc(C(=O)NC3(C(=O)O)C4CC5CC(C4)CC3C5)c(C(C)(F)F)n2)c2ccc(OC3CCN(c4ncc(F)cn4)CC3)cc21 (centres unmarked) [Compound I-588] | < 10 nM | < 10 nM | 
29 | CC(F)(F)c1nc(N2CC3(CCCCC3)c3cc(OC4CCC(N5CCC(F)(F)C5)CC4)ccc32)ncc1C(=O)NC1(C(=O)O)C2CC3CC(C2)CC1C3 (centres unmarked) [Compound I-540] |  |  | EC50 (RSV A2 strain; [6]): < 10 nM; EC50 [1, 7]: 10 to 100 nM
30 | COC[C@@H](C)n1cc(-c2ncc(C(=O)NC3(C(=O)O)C4CC5CC(C4)CC3C5)c(C(F)(F)F)n2)c2ccc(OC3CCN(CC(C)(F)F)CC3)cc21 (some centres unmarked) [Compound I-576] | < 10 nM | < 10 nM | 
31 | CCC(CC)n1cc(-c2ncc(C(=O)NC3(C(=O)O)C4CC5CC(C4)CC3C5)c(C(F)(F)F)n2)c2ccc(O[C@H]3CC[C@H](N4CC(F)(F)C4)CC3)cc21 (some centres unmarked) [Compound I-496] | < 10 nM | < 10 nM | 
32 | CC(F)(F)CN1CCC(Oc2ccc3c(-c4ccc(C(=O)NC5(C(=O)O)C6CC7CC(C6)CC5C7)c(C(F)(F)F)n4)cn(C4CCC(F)(F)CC4)c3c2)CC1 (centres unmarked) [Compound I-512] | < 10 nM | 10 to 100 nM | 
33 | O=C(NC1(C(=O)O)C2CC3CC(C2)CC1C3)c1ccc(-c2cn(C3CCC(F)(F)CC3)c3cc(OC4CCN(CC(F)(F)F)CC4)ccc23)nc1C(F)(F)F (centres unmarked) [Compound I-511] | < 10 nM | 10 to 100 nM | 
34 | O=C(N[C@@]1(C(=O)O)C2CC3C[C@@H]1C[C@](F)(C3)C2)c1cnc(N2CCc3cc(OCCC4CCOCC4)ccc32)nc1C(F)(F)F [Compound I-155] | < 10 nM | 10 to 100 nM | 
35 | O=C(NC1(C(=O)O)C2CC3CC(C2)CC1C3)c1ccc(-c2cn(C3CCC(F)(F)CC3)c3cc(OC4CCN(c5ncccn5)CC4)c(F)cc23)nc1C(F)(F)F (centres unmarked) [Compound I-221] | < 10 nM | 100 to 5000 nM | 
36 | O=C(NC1(C(=O)O)C2CC3CC(C2)CC1C3)c1cnc(N2CCc3cc(OCCC4CCOCC4)ccc32)nc1C(F)(F)F (centres unmarked) [Compound I-23] |  |  | EC50 (RSV A2 strain; [2]): 0.96 nM; EC50 [1, 3]: 16 nM
37 | CC(F)(F)c1nc(N2CC3(CCOCC3)c3cc(OC4CCN(CC(F)(F)F)CC4)ncc32)ncc1C(=O)N[C@]1(C(=O)O)[C@@H]2CC3C[C@H]1C[C@@](F)(C3)C2 [Compound I-605] | < 10 nM | < 10 nM | 
